From patent publication US20140114067A1, “BENZIMIDAZOLE DERIVATIVES AS MITOCHONDRIAL FUNCTION MODULATORS” (KOREA INSTITUTE OF SCIENCE AND TECHNOLOGY, priority 2012, published 2014)

Tested on: HT-22 cells
Experiment: Recovery of ATP production capability reduced by amyloid beta (luciferin/luciferase)
Assay type: cell-based
Conditions: compound 5 μM, amyloid beta 5 μM, 7 hours, amyloid beta vehicle control without drug = 0%
Protocol: (§1) Meanwhile, the compound represented by Formula 1 according to the present invention is evaluated through a test to determine recovery of mitochondrial functions damaged by amyloid beta, as described in the following Test Example. After the test, the results are shown in terms of the percentages of mitochondrial function disorder caused by amyloid beta. The degree of mitochondrial function disorder caused by amyloid beta is taken as 0% and the normal condition in the absence of amyloid beta is shown as 100%.
To a transparent 96-well plate, HT-22 cells are inoculated in a number of 10,000 per well one day before the test, followed by treatment with each compound to a final concentration of 5 μM per well. The cells are cultured at 37° C. for 10 minutes. Particularly, for each drug, two wells are treated with amyloid beta (5 μM) and the other two wells are treated with the vehicle control (5 μM DMSO). After the treatment, the cells are cultured at 37° C. for 7 hours. The cells treated with each drug are washed twice with PBS, lysed with Triton X-100 (1% in TSBT buffer) and agitated at room temperature for 5 minutes. […] is used to determine the protein amount of each well, and the same amount of protein taken from each well is added to a white 96-well plate. Then, […] (Molecular Probe, USA) for ATP determination containing d-luciferin and luciferase is added thereto and emission peaks generated from each of the wells are determined. After the determination, the peaks are normalized by taking the vehicle control to which amyloid beta is added without treatment with any drug as 0%.

SMILES | ATP Production Capability Recovery (%) (5 μM)
O=C(NCCCN1CCCCC1)c1ccc(Cn2c(Cc3c(Cl)cccc3Cl)nc3ccccc32)cc1 [Compound 37, 4-((2-(2,6-dichlorobenzyl)-1H-benzo[d]imidazol-1-yl)methyl)-N-(3-(piperidin-1-yl)propyl)benzamide] | 64
CCN1CCCC1CNC(=O)c1ccc(Cn2c(Cc3c(Cl)cccc3Cl)nc3ccccc32)cc1 (stereo not shown) [Compound 32, 4-((2-(2,6-dichlorobenzyl)-1H-benzo[d]imidazol-1-yl)methyl)-N-((1-ethylpyrrolidin-2-yl)methyl)benzamide] | 51
CN(C)CCCNC(=O)c1ccc(Cn2c(Cc3c(Cl)cccc3Cl)nc3ccccc32)cc1 [Compound 34, 4-((2-(2,6-dichlorobenzyl)-1H-benzo[d]imidazol-1-yl)methyl)-N-(3-(dimethylamino)propyl)benzamide] | 85

Tested on: HT-22 cells
Experiment: Improvement in mitochondrial membrane potential dropped by amyloid beta (JC-1 dye)
Assay type: cell-based
Conditions: compound 5 μM, amyloid beta 5 μM, 3 hours, JC-1 green:red ratio, amyloid beta damage = 0%, normal = 100%
Protocol: as §1
To a transparent 96-well plate, HT-22 cells are inoculated in a number of 30,000 per well one day before the test. On the next day, JC-1 dye (Stratagen, USA) is diluted with Opti-MEM containing no phenol red to a concentration of 7.5 μM, and the resultant dilution is used to treat the cells for 1 hour and 15 minutes. The dyed cells are washed twice with phosphate buffer solution (PBS), followed by treatment with each compound to a final concentration of 5 μM per well. Then, the cells are cultured at 37° C. for 10 minutes. Particularly, for each drug, two wells are treated with amyloid beta (5 μM) and the other two wells are treated with the vehicle control (5 μM DMSO). Then, the cells are cultured at 37° C. for 3 hours. The fluorescence intensity of each well is read by using a fluorescence plate reader at 485/535 nm (green/J-monomer) and 560/595 nm (red/J-aggregate). Then, the ratio of green:red is calculated and the results are normalized by taking the change of the ratio between addition of amyloid beta and no-addition of amyloid beta in the vehicle control non-treated with drugs as 100%.

SMILES | Improvement in Membrane Potential (%) (5 μM)
O=C(NCCCN1CCCCC1)c1ccc(Cn2c(Cc3c(Cl)cccc3Cl)nc3ccccc32)cc1 [Compound 37, 4-((2-(2,6-dichlorobenzyl)-1H-benzo[d]imidazol-1-yl)methyl)-N-(3-(piperidin-1-yl)propyl)benzamide] | 90
CCN1CCCC1CNC(=O)c1ccc(Cn2c(Cc3c(Cl)cccc3Cl)nc3ccccc32)cc1 (stereo not shown) [Compound 32, 4-((2-(2,6-dichlorobenzyl)-1H-benzo[d]imidazol-1-yl)methyl)-N-((1-ethylpyrrolidin-2-yl)methyl)benzamide] | 90
CN(C)CCCNC(=O)c1ccc(Cn2c(Cc3c(Cl)cccc3Cl)nc3ccccc32)cc1 [Compound 34, 4-((2-(2,6-dichlorobenzyl)-1H-benzo[d]imidazol-1-yl)methyl)-N-(3-(dimethylamino)propyl)benzamide] | 82
Cc1ccc(C(C)C)cc1NC(=O)Cn1c(SCc2ccc(C(=O)NCCCN(C)C)cc2)nc2ccccc21 [Compound 45, N-(3-(dimethylamino)propyl)-4-((1-(2-(5-isopropyl-2-methylphenylamino)-2-oxoethyl)-1H-benzo[d]imidazol-2-ylthio)methyl)benzamide] | 59
CN1CCC(NC(=O)c2ccc(Cn3c(Cc4c(Cl)cccc4Cl)nc4ccccc43)cc2)CC1 [Compound 33, 4-((2-(2,6-dichlorobenzyl)-1H-benzo[d]imidazol-1-yl)methyl)-N-(1-methylpiperidin-4-yl)benzamide] | 81
Cc1ccc(C(C)C)cc1NC(=O)Cc1nc2ccccc2n1Cc1ccc(C(=O)NCCCN(C)C)cc1 [Compound 42, N-(3-(dimethylamino)propyl)-4-((2-(2-(5-isopropyl-2-methylphenylamino)2-oxoethyl)-1H-benzo[d]imidazol-1-yl)methyl)benzamide] | 68
COc1ccc(OC)c(Cc2nc3ccccc3n2CC(=O)Nc2cc(C(C)C)ccc2C)c1 [Compound 19, 2-(2-(2,5-dimethoxybenzyl)-1H-benzo[d]imidazol-1-yl)-N-(5-isopropyl-2-methylphenyl)acetamide] | 81
O=C(NCCN1CCCCC1)c1ccc(Cn2c(Cc3c(Cl)cccc3Cl)nc3ccccc32)cc1 [Compound 38, 4-((2-(2,6-dichlorobenzyl)-1H-benzo[d]imidazol-1-yl)methyl)-N-(3-(piperidin-1-yl)ethyl)benzamide] | 89
Cc1ccc(C(C)C)cc1NC(=O)Cc1nc2ccccc2n1Cc1ccc(C(=O)NCCCN2CCCCC2)cc1 [Compound 44] | 80
Cc1ccc(C(C)C)cc1NC(=O)Cn1c(Cc2ccc(Cl)c(Cl)c2)nc2ccccc21 [Compound 21, 2-(2-(3,4-dichlorobenzyl)-1H-benzo[d]imidazol-1-yl)-N-(5-isopropyl-2-methylphenyl)acetamide] | 57
O=C(Cn1c(-c2ccccc2)nc2ccccc21)Nc1cc(Cl)cc(Cl)c1 [Compound 15, N-(3,5-dichlorophenyl)-2-(2-phenyl-1H-benzo[d]imidazol-1-yl)acetamide] | 69
Cc1ccc(C(C)C)cc1NC(=O)Cn1c(-c2ccccc2)nc2ccccc21 [Compound 4, N-(5-isopropyl-2-methylphenyl)-(2-phenyl-1H-benzo[d]imidazol-1-yl)acetamide] | 91
CC(C)(C)c1cc(NC(=O)Cn2c(Cc3ccc(Cl)c(Cl)c3)nc3ccccc32)cc(C(C)(C)C)c1 [Compound 24, N-(3,5-di-tert-butylphenyl)-2-(2-(3,4-dichlorobenzyl)-1H-benzo[d]imidazol-1-yl)acetamide] | 42
Cc1cccc(C(C)(C)C)c1NC(=O)Cn1c(Cc2ccccc2)nc2ccccc21 [Compound 12, 2-(2-benzyl-1H-benzo[d]imidazol-1-yl)-N-(2-tert-butyl-6-methylphenyl)acetamide] | 38
CCN1CCCC1CNC(=O)c1ccc(CSc2nc3ccccc3n2CC(=O)Nc2cc(C(C)C)ccc2C)cc1 (stereo not shown) [Compound 43, N-((1-ethylpyrrolidin-2-yl)methyl)-4-((1-(2-(5-isopropyl-2-methylphenylamino)2-oxoethyl)-1H-benzo[d]imidazol-2-ylthio)methyl)benzamide] | 70
Cc1cccc(C(C)(C)C)c1NC(=O)Cn1c(-c2cc(Cl)ccc2Cl)nc2ccccc21 [Compound 7, N-(2-tert-butyl-6-methylphenyl)-2-(2-(2,5-dichlorophenyl)-1H-benzo[d]imidazol-1-yl)acetamide] | 41
Cc1ccc(C(C)C)cc1NC(=O)Cn1c(SCc2ccc(C(=O)NCCCN3CCCCC3)cc2)nc2ccccc21 [Compound 46] | 67
CCN1CCCC1CNC(=O)c1ccc(Cn2c(CC(=O)Nc3cc(C(C)C)ccc3C)nc3ccccc32)cc1 (stereo not shown) [Compound 41, N-((1-ethylpyrrolidin-2-yl)methyl)-4-((2-(2-(5-isopropyl-2-methylphenylamino)-2-oxoethyl)-1H-benzo[d]imidazol-1-yl)methyl)benzamide] | 68
CN1CCN(CCCNC(=O)c2ccc(Cn3c(Cc4c(Cl)cccc4Cl)nc4ccccc43)cc2)CC1 [Compound 36, 4-((2-(2,6-dichlorobenzyl)-1H-benzo[d]imidazol-1-yl)methyl)-N-(3-(4-methylpiperazin-1-yl)propyl)benzamide] | 86
CN(C)C(=O)c1ccc(Cn2c(Cc3c(Cl)cccc3Cl)nc3ccccc32)cc1 [Compound 47, 4-((2-(2,6-dichlorobenzyl)-1H-benzo[d]imidazol-1-yl)methyl)-N,N-dimethylbenzamide] | 73
Cc1ccc(C(C)C)cc1NC(=O)Cn1c(-c2cc(Cl)ccc2Cl)nc2cc(Cl)ccc21 [Compound 26, 2-(5-chloro-2-(2,5-dichlorophenyl)-1H-benzo[d]imidazol-1-yl)-N-(5-isopropyl-2-methylphenyl)acetamide] | 60
O=C(Cn1c(-c2cc(Cl)ccc2Cl)nc2ccccc21)Nc1cc(Cl)cc(Cl)c1 [Compound 5, N-(3,5-dichlorophenyl)-2-(2-(2,5-dichlorophenyl)-1H-benzo[d]imidazol-1-yl)acetamide] | 91
O=C(Cn1c(-c2cc(Cl)ccc2Cl)nc2cc(Cl)ccc21)Nc1cc(Cl)cc(Cl)c1 [Compound 27, 2-(5-chloro-2-(2,5-dichlorophenyl)-1H-benzo[d]imidazol-1-yl)-N-(3,5-dichlorophenyl)acetamide] | 77
O=C(NCCCN1CCOCC1)c1ccc(Cn2c(Cc3c(Cl)cccc3Cl)nc3ccccc32)cc1 [Compound 39, 4-((2-(2,6-dichlorobenzyl)-1H-benzo[d]imidazol-1-yl)methyl)-N-(3-morpholinopropyl)benzamide] | 76
COc1ccc(OC)c(-c2nc3ccccc3n2CC(=O)Nc2cc(C(C)C)ccc2C)c1 [Compound 1, 2-(2-(2,5-dimethoxyphenyl)-1H-benzo[d]imidazol-1-yl)-N-(5-isopropyl-2-methylphenyl)acetamide] | 41
Cc1ccc(C(C)C)cc1NC(=O)Cn1c(-c2ccccc2)nc2ccccc21 [Compound 14, N-(5-isopropyl-2-methylphenyl)-2-(2-phenyl-1H-benzo[d]imidazol-1-yl)acetamide] | 73
CC(C)(C)c1cc(NC(=O)Cn2c(-c3ccccc3)nc3ccccc32)cc(C(C)(C)C)c1 [Compound 13, N-(3,5-di-tert-butylphenyl)-2-(2-phenyl-1H-benzo[d]imidazol-1-yl)acetamide] | 86
O=C(NCCCN1CCCC1)c1ccc(Cn2c(Cc3c(Cl)cccc3Cl)nc3ccccc32)cc1 [Compound 35, 4-((2-(2,6-dichlorobenzyl)-1H-benzo[d]imidazol-1-yl)methyl)-N-(3-(pyrrolidin-1-yl)propyl)benzamide] | 79
